Values of other authors as cited in patent US6673333B1, “Functional MRI agents for cancer imaging” (Research Corporation Technologies, Inc., priority 2000, dated 2004).

Assays:
[1] = thermodynamic stability of the Gd(III) chelate complex
[2] = at physiological pH

| Compound | stability constant (K), formation constant, logK [1] | dissociation kinetics [2] |
| --- | --- | --- |
| O=C([O-])CN(CCN(CC(=O)[O-])CC(=O)[O-])CCN(CC(=O)[O-])CC(=O)[O-].[Gd+3] [Gd(DTPA)^2−] | 22.4 | – |
| O=C([O-])CN1CCN(CC(=O)[O-])CCN(CC(=O)O)CCN(CC(=O)[O-])CC1.[Gd+3] [Gd-DOTA] | 28.5 | very slow |
